According to US20250313535A1, “ALPHA 4 BETA 7 INTEGRIN MODULATORS AND USES THEREOF” (DICE MOLECULES SV, INC., priority 2022, published 2025):
Read-outs that look alike come from different tables or passages of the source.

Key:
[1] = molecular target: α4β1 integrin (Homo sapiens (Human), UniProt P05556+P13612); assay: Integrin Adhesion Assay: Protocol 5 (VCAM-coated plate, RPMI-8866 cells with stable LOF mutation of the ITGB7 gene); type: cell-based
Procedure, shortened: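 RPMI-8866 B cells with CRISPR/Cas9 ITGB7 knockout (clonal, verified by flow cytometry) adhered to VCAM-coated wells for 1 h at 37° C in HEPES/NaCl buffer with 1 mM MnCl2, 0.1 mM CaCl2, 1% BSA, 1% DMSO. Bound cells quantified by CellTiter-Glo luminescence after washing; % inhibition versus DMSO and control, 4-parameter fit.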

[2] = molecular target: α4β7 integrin (Homo sapiens (Human), UniProt P13612+P26010); assay: Integrin Adhesion Assay: Protocol 4 (MAdCAM-coated plate, RPMI-8866 cells with stable LOF mutation of the ITGB1 gene); type: cell-based
Procedure, shortened: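 RPMI-8866 cells with CRISPR/Cas9 knockout of ITGB1 (2×10^6/mL) were added to MAdCAM-coated wells with compound (1% DMSO) in HEPES/NaCl buffer with 1 mM MnCl2, 0.1 mM CaCl2 and 1% BSA, then incubated 1 h at 37 °C. After four washes, adherent cells were quantified by CellTiter-Glo luminescence. Percent inhibition versus DMSO and control compound was fitted to 4-parameter curves.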

[3] = RPMI-8866 cells with stable LOF mutation of the ITGB7 gene, read-out: Mean IC50 α4β1 KO^b
[4] = RPMI-8866 cells with stable LOF mutation of the ITGB1 gene, read-out: Mean IC50 α4β7 KO^a
[5] = Protocol 5, RPMI-8866 cells with LOF mutation of ITGB7, VCAM, read-out: Mean IC50 α4β1 KO
[6] = Protocol 4, RPMI-8866 cells with LOF mutation of ITGB1, MAdCAM, read-out: Mean IC50 α4β7 KO

Sequence of α4β1 integrin (P13612 34-1032): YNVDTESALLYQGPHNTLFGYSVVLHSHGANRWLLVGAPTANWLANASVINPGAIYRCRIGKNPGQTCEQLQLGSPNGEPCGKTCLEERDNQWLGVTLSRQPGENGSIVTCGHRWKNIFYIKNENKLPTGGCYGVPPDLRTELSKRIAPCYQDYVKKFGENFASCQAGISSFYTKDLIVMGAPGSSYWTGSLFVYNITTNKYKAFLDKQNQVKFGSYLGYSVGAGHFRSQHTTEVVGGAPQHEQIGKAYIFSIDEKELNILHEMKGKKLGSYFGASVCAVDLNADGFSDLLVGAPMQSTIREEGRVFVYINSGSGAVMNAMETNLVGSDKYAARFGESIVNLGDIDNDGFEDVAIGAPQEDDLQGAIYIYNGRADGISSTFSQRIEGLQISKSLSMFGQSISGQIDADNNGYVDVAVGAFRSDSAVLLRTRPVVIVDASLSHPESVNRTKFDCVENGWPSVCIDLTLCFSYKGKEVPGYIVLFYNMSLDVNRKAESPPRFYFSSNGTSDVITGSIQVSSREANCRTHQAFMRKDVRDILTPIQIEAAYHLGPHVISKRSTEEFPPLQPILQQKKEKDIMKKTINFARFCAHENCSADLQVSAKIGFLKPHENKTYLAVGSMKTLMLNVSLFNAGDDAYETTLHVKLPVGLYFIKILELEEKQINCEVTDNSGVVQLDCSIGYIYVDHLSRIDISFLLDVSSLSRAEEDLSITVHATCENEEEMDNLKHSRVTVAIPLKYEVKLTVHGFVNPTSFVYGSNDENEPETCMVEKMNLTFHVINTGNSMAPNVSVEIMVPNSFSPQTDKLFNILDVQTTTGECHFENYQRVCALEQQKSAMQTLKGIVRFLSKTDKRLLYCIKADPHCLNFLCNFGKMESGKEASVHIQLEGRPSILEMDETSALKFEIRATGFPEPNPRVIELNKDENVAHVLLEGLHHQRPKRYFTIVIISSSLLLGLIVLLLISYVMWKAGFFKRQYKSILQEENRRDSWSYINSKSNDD
Sequence of α4β1 integrin (P05556 21-798): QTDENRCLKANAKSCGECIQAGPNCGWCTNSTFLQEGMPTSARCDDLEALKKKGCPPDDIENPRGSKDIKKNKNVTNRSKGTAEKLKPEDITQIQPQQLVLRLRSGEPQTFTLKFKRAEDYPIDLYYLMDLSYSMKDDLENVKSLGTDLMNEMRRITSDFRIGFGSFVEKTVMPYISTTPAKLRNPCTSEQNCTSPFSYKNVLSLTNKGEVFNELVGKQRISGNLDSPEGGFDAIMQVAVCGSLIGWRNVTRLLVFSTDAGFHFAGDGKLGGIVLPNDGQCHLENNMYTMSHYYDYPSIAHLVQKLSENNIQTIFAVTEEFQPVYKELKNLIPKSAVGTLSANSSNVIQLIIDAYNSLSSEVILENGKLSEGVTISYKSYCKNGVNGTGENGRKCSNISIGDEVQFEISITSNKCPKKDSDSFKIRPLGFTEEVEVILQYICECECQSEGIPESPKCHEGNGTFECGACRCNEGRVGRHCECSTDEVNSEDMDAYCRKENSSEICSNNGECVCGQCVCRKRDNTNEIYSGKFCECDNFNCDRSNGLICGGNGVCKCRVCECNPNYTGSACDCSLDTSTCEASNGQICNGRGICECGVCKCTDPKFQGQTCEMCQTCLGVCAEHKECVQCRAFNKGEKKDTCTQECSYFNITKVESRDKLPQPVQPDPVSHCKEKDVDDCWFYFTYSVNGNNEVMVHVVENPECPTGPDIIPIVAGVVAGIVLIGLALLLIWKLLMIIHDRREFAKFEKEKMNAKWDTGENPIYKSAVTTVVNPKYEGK
Sequence of α4β7 integrin (P13612 34-1032): as the sequence (P13612 34-1032) above
Sequence of α4β7 integrin (P26010 20-798): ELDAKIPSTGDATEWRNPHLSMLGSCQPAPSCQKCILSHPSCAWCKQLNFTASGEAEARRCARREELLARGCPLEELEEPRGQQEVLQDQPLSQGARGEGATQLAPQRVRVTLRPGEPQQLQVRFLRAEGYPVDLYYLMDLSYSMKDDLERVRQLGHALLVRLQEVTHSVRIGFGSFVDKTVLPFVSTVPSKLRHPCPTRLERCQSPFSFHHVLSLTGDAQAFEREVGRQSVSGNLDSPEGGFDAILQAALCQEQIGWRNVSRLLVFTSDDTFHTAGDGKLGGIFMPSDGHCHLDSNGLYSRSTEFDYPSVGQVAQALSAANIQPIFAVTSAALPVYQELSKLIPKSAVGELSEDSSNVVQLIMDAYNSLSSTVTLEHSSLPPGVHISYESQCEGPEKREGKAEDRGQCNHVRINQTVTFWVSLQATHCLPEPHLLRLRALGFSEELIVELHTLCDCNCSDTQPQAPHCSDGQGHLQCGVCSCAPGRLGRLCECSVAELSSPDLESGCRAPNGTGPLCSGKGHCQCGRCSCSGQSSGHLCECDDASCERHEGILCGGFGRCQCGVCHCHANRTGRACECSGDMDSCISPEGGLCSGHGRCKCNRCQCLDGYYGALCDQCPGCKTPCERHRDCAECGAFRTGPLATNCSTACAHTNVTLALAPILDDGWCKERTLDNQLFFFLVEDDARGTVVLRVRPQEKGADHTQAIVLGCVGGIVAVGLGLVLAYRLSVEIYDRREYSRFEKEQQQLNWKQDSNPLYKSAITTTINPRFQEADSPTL

SMILES	IC50 [1, 3] [nM]	IC50 [2, 4] [nM]	IC50 [1, 5] [nM]	IC50 [2, 6] [nM]
CN(C)Cc1cc(-c2cccc3c(C[C@H](NC(=O)c4c(F)cc(N5CCOC[C@@H]5C(F)(F)F)cc4CN4CCCC4)C(=O)O)cccc23)c2cnccc2c1 [Compound 587]	> 1000	< 10		
COc1ccc(CN2CCC(C(C)(C)C)CC2)c(OC)c1-c1cccc2c(C[C@H](NC(=O)c3c(C)cccc3F)C(=O)O)cccc12 [Compound 579]	100 to 1000	< 10		
COc1ccc(CN2CCC(C)(C)CC2)c(OC)c1-c1cccc2c(C[C@H](NC(=O)C3(C(F)(F)F)CCN(CC(F)(F)F)CC3)C(=O)O)cccc12 [Compound 789]			100 to 1000	< 10
O=C(O)[C@H](Cc1cccc2c(-c3ncc(C(=O)N4CCN(C5CC5)CC4)c4ccccc34)cccc12)NC(=O)C1(C(F)(F)F)CCN(CC(F)(F)F)CC1 [Compound 762]			> 1000	10 to 100
COc1ccc2c(c1-c1cccc3c(C[C@H](NC(=O)C4(C(F)(F)F)CCN(CC(F)(F)F)CC4)C(=O)O)cccc13)CCN(CC(F)F)C2 [Compound 752]			> 1000	10 to 100
O=C(O)[C@H](Cc1cccc2c(-c3cc(CN4CCC(F)(F)C4)cc4ccncc34)cccc12)NC(=O)C1(C(F)(F)F)CCN(C2COC2)CC1 [Compound 598]	> 1000	10 to 100		
COc1ccc(CN(C)C)c(OC)c1-c1cccc2c(C[C@H](NC(=O)c3c(F)cccc3C(F)(F)F)C(=O)O)cccc12 [Compound 479]	100 to 1000	< 10		
Cn1c(=O)c(-c2cccc3c(C[C@H](NC(=O)C4(C)CN(C5CCOC(C(F)(F)F)C5)C4)C(=O)O)cccc23)c(C(F)(F)F)c2ccccc21 (stereo partly shown) [Compound 506]	> 1000	100 to 1000		
CCC1(C(=O)N[C@@H](Cc2cccc3c(-c4ncc(CN5CCCCC5)c5ccccc45)cccc23)C(=O)O)CCN(CC(F)(F)F)CC1 [Compound 676]	> 1000	< 10		
COc1ccc(CN2CCC2)c(OC)c1-c1cccc2c(C[C@H](NC(=O)c3c(C)cccc3F)C(=O)O)cccc12 [Compound 628]	100 to 1000	< 10		
COc1ccc2cccnc2c1-c1cccc2c(C[C@H](NC(=O)C3(C(F)(F)F)CCN(CC(F)(F)F)CC3)C(=O)O)cccc12 [Compound 472]	> 1000	< 10		
O=C(O)[C@H](Cc1cccc2c(-c3nccc4ccc(CCCN5CCCCC5)cc34)cccc12)NC(=O)C1(C(F)(F)F)CCN([C@@H]2COCC2(F)F)CC1 [Compound 483]	> 1000	< 10		
Cc1cc(CCN2CCCCC2)cnc1-c1cccc2c(C[C@H](NC(=O)C3(C(F)(F)F)CCN(CC(F)F)CC3)C(=O)O)cccc12 [Compound 756]			> 1000	< 10
COc1c(-c2cccc3c(C[C@H](NC(=O)C4(C(F)(F)F)CCN(CC(F)F)CC4)C(=O)O)cccc23)cc(CN2CCCCC2)cc1C(F)(F)F [Compound 764]			> 1000	10 to 100
Cc1cccc(F)c1C(=O)N[C@@H](Cc1cccc2c(-c3c(C(F)(F)F)c4cc(CCN5CC(F)C5)ccc4n(C)c3=O)cccc12)C(=O)O [Compound 517]	> 1000	< 10		
Cn1c(=O)c(-c2cccc3c(C[C@H](NC(=O)C4(C(F)(F)F)CCN(C5CCOC(C(F)(F)F)C5)CC4)C(=O)O)cccc23)c(C(F)(F)F)c2ccccc21 (stereo partly shown) [Compound 514]	> 1000	10 to 100		
COc1ccc(CN2CCC[C@@H](F)C2)c(OC)c1-c1cccc2c(C[C@H](NC(=O)c3c(C)cccc3F)C(=O)O)cccc12 [Compound 672]	100 to 1000	< 10		
CN1CCCC(c2cnc(-c3cccc4c(C[C@H](NC(=O)C5(C(F)(F)F)CCN(CC(F)(F)F)CC5)C(=O)O)cccc34)c(C(F)(F)F)c2)C1 (stereo partly shown) [Compound 758]			100 to 1000	< 10
COc1ccc(CN2CCC(F)(F)CC2)nc1-c1cccc2c(C[C@H](NC(=O)c3c(C)cccc3F)C(=O)O)cccc12 [Compound 600]	> 1000	10 to 100		

Next, values leading:

IC50 [1, 3] [nM]	IC50 [2, 4] [nM]	IC50 [1, 5] [nM]	IC50 [2, 6] [nM]	SMILES
		> 1000	< 10	COc1cccc(CCN2CCC[C@H](F)C2)c1-c1cccc2c(C[C@H](NC(=O)c3c(C)cccc3F)C(=O)O)cccc12 [Compound 1037]
		> 1000	< 10	CC[C@@H]1CCCN1Cc1cnc(-c2cccc3c(C[C@H](NC(=O)C4(C(F)(F)F)CCN(CC(F)(F)F)CC4)C(=O)O)cccc23)c2ccccc12 [Compound 935]
		100 to 1000	< 10	COc1cc(CCN2CCCCC2)ccc1-c1cccc2c(C[C@H](NC(=O)C3(C(F)(F)F)CCN(CC(F)(F)F)CC3)C(=O)O)cccc12 [Compound 963]
		100 to 1000	< 10	COc1ccc(CN2CC[C@@H](F)C2)cc1-c1cccc2c(C[C@H](NC(=O)C3(C(F)(F)F)CCN(CC(F)F)CC3)C(=O)O)cccc12 [Compound 944]
		> 1000	< 10	O=C(O)[C@H](Cc1cccc2c(-c3nccc4cccc(CN5CCCCC5)c34)cccc12)NC(=O)C1(C(F)(F)F)CCN(CC(F)(F)F)CC1 [Compound 864]
		> 1000	< 10	O=C(O)[C@H](Cc1cccc2c(-c3ncc(CN4CCC5(CC4)CC5)c4ccccc34)cccc12)NC(=O)C1(C(F)(F)F)CCN(CC(F)(F)F)CC1 [Compound 883]
		> 1000	< 10	O=C(O)[C@H](Cc1cccc2c(-c3c(CN4CCCCC4)ccc4ccncc34)cccc12)NC(=O)C1(C(F)(F)F)CCN(CC(F)(F)F)CC1 [Compound 802]
		> 1000	< 10	O=C(O)[C@H](Cc1cccc2c(-c3ncc(CCN4CCC[C@@H](F)C4)c4ccccc34)cccc12)NC(=O)C1(C(F)(F)F)CCN(CC(F)(F)F)CC1 [Compound 977]
		100 to 1000	< 10	O=C(O)[C@H](Cc1cccc2c(-c3ncc(CN4CCC[C@@H](F)C4)cc3C3CC3)cccc12)NC(=O)C1(C(F)(F)F)CCN(CC(F)F)CC1 [Compound 954]
		> 1000	10 to 100	COc1cc(C(F)(F)F)c(CN2CCCCC2)cc1-c1cccc2c(C[C@H](NC(=O)c3c(C)cccc3F)C(=O)O)cccc12 [Compound 1025]
		100 to 1000	< 10	COc1ccc(CCN2CCC3(CCCCC3)CC2)c(OC)c1-c1cccc2c(C[C@H](NC(=O)C3(C(F)(F)F)CCN(CC(F)(F)F)CC3)C(=O)O)cccc12 [Compound 957]
		100 to 1000	< 10	COc1ccc(CN2CCN(C3CCC3)CC2)c(OC)c1-c1cccc2c(C[C@H](NC(=O)C3(C(F)(F)F)CCN(CC(F)(F)F)CC3)C(=O)O)cccc12 [Compound 816]
		100 to 1000	< 10	COc1cccc(CN2CCC(C(C)(C)C)CC2)c1-c1cccc2c(C[C@H](NC(=O)c3c(C)cccc3F)C(=O)O)cccc12 [Compound 1027]
		100 to 1000	< 10	O=C(O)[C@H](Cc1cccc2c(-c3ncc(CN4CCOCC4)c4ccccc34)cccc12)NC(=O)C1(C(F)(F)F)CCN(CC(F)F)CC1 [Compound 878]
		100 to 1000	< 10	COc1cccc(CCN2CCC(C)C(F)(F)CC2)c1-c1cccc2c(C[C@H](NC(=O)C3(C(F)(F)F)CCN(CC(F)(F)F)CC3)C(=O)O)cccc12 (stereo partly shown) [Compound 972]
		100 to 1000	< 10	CC[C@H]1CCCN1Cc1cnc(-c2cccc3c(C[C@H](NC(=O)C4(C(F)(F)F)CCN(CC(F)F)CC4)C(=O)O)cccc23)c2ccccc12 [Compound 934]
